Source: the supplement of paper PMC10307832

Assays:
Assay in all cases: relative viability (nuclei count vs DMSO), 5 days (fraction); higher = more cells survive
[1] = compound: C1COCCN1C2=NC(=NC3=C2OC4=C3C=CC=N4)C5=CC(=CC=C5)NC(=O)C6=CN=C(C=C6)N + Cc1nc(NC(=O)N2CCC[C@H]2C(N)=O)sc1-c1ccnc(C(C)(C)C(F)(F)F)c1 [Alpelisib] (partner 2 µM)
Procedure, shortened: (§1)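 Lung cancer cell lines were pin-tool dosed in 1536-well plates on the day after seeding, with either a lone drug or a fixed anchor-drug dose plus five library-drug doses (not always all listed) in √10 steps. Nuclei were counted on 4× images after 5 days. Relative viability is the ratio of treated-well to vehicle-well nuclei counts, with each value a median of duplicate plates.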

SGI-1776 + Tozasertib = compound: CN1CCC(CNc2ccc3ncc(-c4cccc(OC(F)(F)F)c4)n3n2)CC1 [SGI-1776] + Cc1cc(Nc2cc(N3CCN(C)CC3)nc(Sc3ccc(NC(=O)C4CC4)cc3)n2)n[nH]1 [Tozasertib] (partner 0.1 µM)
Procedure, shortened: as §1

Entinostat + Navitoclax = compound: Nc1ccccc1NC(=O)c1ccc(CNC(=O)OCc2cccnc2)cc1 [Entinostat] + CC1(C)CCC(c2ccc(Cl)cc2)=C(CN2CCN(c3ccc(C(=O)NS(=O)(=O)c4ccc(N[C@H](CCN5CCOCC5)CSc5ccccc5)c(S(=O)(=O)C(F)(F)F)c4)cc3)CC2)C1 [Navitoclax] (partner 0.5 µM)
Procedure, shortened: as §1

Entinostat + AZD7762 = compound: Nc1ccccc1NC(=O)c1ccc(CNC(=O)OCc2cccnc2)cc1 [Entinostat] + NC(=O)Nc1cc(-c2cccc(F)c2)sc1C(=O)N[C@H]1CCCNC1 [AZD7762] (partner 0.2 µM)
Procedure, shortened: as §1

## HCC-15
[1]; first compound 0.02 µM
  relative viability: 0.901
[1]; first compound 0.06325 µM
  relative viability: 0.848
[1]; first compound 0.2 µM
  relative viability: 0.843
[1]; first compound 0.6325 µM
  relative viability: 0.827
[1]; first compound 2 µM
  relative viability: 0.637
SGI-1776 + Tozasertib; first compound 0.08 µM
  relative viability: 0.386
SGI-1776 + Tozasertib; first compound 0.8 µM
  relative viability: 0.312
SGI-1776 + Tozasertib; first compound 2.53 µM
  relative viability: 0.118
SGI-1776 + Tozasertib; first compound 8 µM
  relative viability: 0.112
Entinostat + Navitoclax; first compound 0.02 µM
  relative viability: 0.753
Entinostat + Navitoclax; first compound 0.06325 µM
  relative viability: 0.699
Entinostat + Navitoclax; first compound 0.2 µM
  relative viability: 0.58
Entinostat + Navitoclax; first compound 0.6325 µM
  relative viability: 0.302
Entinostat + Navitoclax; first compound 2 µM
  relative viability: 0.196
Entinostat + AZD7762; first compound 0.02 µM
  relative viability: 1.19
Entinostat + AZD7762; first compound 0.06325 µM
  relative viability: 1.2
Entinostat + AZD7762; first compound 0.2 µM
  relative viability: 1.26
Entinostat + AZD7762; first compound 0.6325 µM
  relative viability: 0.774
Entinostat + AZD7762; first compound 2 µM
  relative viability: 0.457

## NCI-H727
[1]; first compound 0.02 µM
  relative viability: 0.472
[1]; first compound 0.06325 µM
  relative viability: 0.418
[1]; first compound 0.2 µM
  relative viability: 0.51
[1]; first compound 0.6325 µM
  relative viability: 0.693
[1]; first compound 2 µM
  relative viability: 0.341
SGI-1776 + Tozasertib; first compound 0.08 µM
  relative viability: 0.669
SGI-1776 + Tozasertib; first compound 0.8 µM
  relative viability: 0.598
SGI-1776 + Tozasertib; first compound 2.53 µM
  relative viability: 0.536
SGI-1776 + Tozasertib; first compound 8 µM
  relative viability: 0.472
Entinostat + Navitoclax; first compound 0.02 µM
  relative viability: 0.443
Entinostat + Navitoclax; first compound 0.06325 µM
  relative viability: 0.356
Entinostat + Navitoclax; first compound 0.2 µM
  relative viability: 0.312
Entinostat + Navitoclax; first compound 0.6325 µM
  relative viability: 0.177
Entinostat + Navitoclax; first compound 2 µM
  relative viability: 0.163
Entinostat + AZD7762; first compound 0.02 µM
  relative viability: 0.598
Entinostat + AZD7762; first compound 0.06325 µM
  relative viability: 0.667
Entinostat + AZD7762; first compound 0.2 µM
  relative viability: 0.624
Entinostat + AZD7762; first compound 0.6325 µM
  relative viability: 0.646
Entinostat + AZD7762; first compound 2 µM
  relative viability: 0.776

## HCC-44
[1]; first compound 0.02 µM
  relative viability: 0.803
[1]; first compound 0.06325 µM
  relative viability: 0.879
[1]; first compound 0.2 µM
  relative viability: 1.04
[1]; first compound 0.6325 µM
  relative viability: 0.807
[1]; first compound 2 µM
  relative viability: 0.499
SGI-1776 + Tozasertib; first compound 0.08 µM
  relative viability: 0.904
SGI-1776 + Tozasertib; first compound 0.8 µM
  relative viability: 0.491
SGI-1776 + Tozasertib; first compound 2.53 µM
  relative viability: 0.336
SGI-1776 + Tozasertib; first compound 8 µM
  relative viability: 0.246
Entinostat + Navitoclax; first compound 0.02 µM
  relative viability: 1.02
Entinostat + Navitoclax; first compound 0.06325 µM
  relative viability: 0.826
Entinostat + Navitoclax; first compound 0.2 µM
  relative viability: 0.418
Entinostat + Navitoclax; first compound 0.6325 µM
  relative viability: 0.403
Entinostat + Navitoclax; first compound 2 µM
  relative viability: 0.235
Entinostat + AZD7762; first compound 0.02 µM
  relative viability: 1.02
Entinostat + AZD7762; first compound 0.06325 µM
  relative viability: 0.876
Entinostat + AZD7762; first compound 0.2 µM
  relative viability: 1.02
Entinostat + AZD7762; first compound 0.6325 µM
  relative viability: 0.995
Entinostat + AZD7762; first compound 2 µM
  relative viability: 0.774

## EMC-BAC-2
[1]; first compound 0.02 µM
  relative viability: 0.794
[1]; first compound 0.06325 µM
  relative viability: 0.867
[1]; first compound 0.2 µM
  relative viability: 0.785
[1]; first compound 0.6325 µM
  relative viability: 0.707
[1]; first compound 2 µM
  relative viability: 0.589
SGI-1776 + Tozasertib; first compound 0.08 µM
  relative viability: 0.285
SGI-1776 + Tozasertib; first compound 0.8 µM
  relative viability: 0.257
SGI-1776 + Tozasertib; first compound 2.53 µM
  relative viability: 0.212
SGI-1776 + Tozasertib; first compound 8 µM
  relative viability: 0.224
Entinostat + Navitoclax; first compound 0.02 µM
  relative viability: 1.21
Entinostat + Navitoclax; first compound 0.06325 µM
  relative viability: 1.15
Entinostat + Navitoclax; first compound 0.2 µM
  relative viability: 1.25
Entinostat + Navitoclax; first compound 0.6325 µM
  relative viability: 0.968
Entinostat + Navitoclax; first compound 2 µM
  relative viability: 0.642
Entinostat + AZD7762; first compound 0.02 µM
  relative viability: 1.17
Entinostat + AZD7762; first compound 0.06325 µM
  relative viability: 0.987
Entinostat + AZD7762; first compound 0.2 µM
  relative viability: 0.881
Entinostat + AZD7762; first compound 0.6325 µM
  relative viability: 0.441
Entinostat + AZD7762; first compound 2 µM
  relative viability: 0.457

## LCLC-97TM1
[1]; first compound 0.06325 µM
  relative viability: 0.265
[1]; first compound 0.2 µM
  relative viability: 0.208
[1]; first compound 0.6325 µM
  relative viability: 0.313
[1]; first compound 2 µM
  relative viability: 0.249
SGI-1776 + Tozasertib; first compound 0.08 µM
  relative viability: 0.211
SGI-1776 + Tozasertib; first compound 0.8 µM
  relative viability: 0.188
SGI-1776 + Tozasertib; first compound 2.53 µM
  relative viability: 0.163
SGI-1776 + Tozasertib; first compound 8 µM
  relative viability: 0.185
Entinostat + Navitoclax; first compound 0.02 µM
  relative viability: 0.341
Entinostat + Navitoclax; first compound 0.06325 µM
  relative viability: 0.358
Entinostat + Navitoclax; first compound 0.2 µM
  relative viability: 0.473
Entinostat + Navitoclax; first compound 0.6325 µM
  relative viability: 0.308
Entinostat + Navitoclax; first compound 2 µM
  relative viability: 0.272
Entinostat + AZD7762; first compound 0.02 µM
  relative viability: 0.246
Entinostat + AZD7762; first compound 0.06325 µM
  relative viability: 0.283
Entinostat + AZD7762; first compound 0.2 µM
  relative viability: 0.283
Entinostat + AZD7762; first compound 0.6325 µM
  relative viability: 0.281
Entinostat + AZD7762; first compound 2 µM
  relative viability: 0.243

## LK-2
[1]; first compound 0.02 µM
  relative viability: 1.07
[1]; first compound 0.06325 µM
  relative viability: 1.15
[1]; first compound 0.2 µM
  relative viability: 1.2
[1]; first compound 0.6325 µM
  relative viability: 1.06
[1]; first compound 2 µM
  relative viability: 0.856
SGI-1776 + Tozasertib; first compound 0.08 µM
  relative viability: 0.181
SGI-1776 + Tozasertib; first compound 0.8 µM
  relative viability: 0.206
SGI-1776 + Tozasertib; first compound 2.53 µM
  relative viability: 0.16
SGI-1776 + Tozasertib; first compound 8 µM
  relative viability: 0.182
Entinostat + Navitoclax; first compound 0.02 µM
  relative viability: 0.719
Entinostat + Navitoclax; first compound 0.06325 µM
  relative viability: 0.752
Entinostat + Navitoclax; first compound 0.2 µM
  relative viability: 0.659
Entinostat + Navitoclax; first compound 0.6325 µM
  relative viability: 0.443
Entinostat + Navitoclax; first compound 2 µM
  relative viability: 0.21
Entinostat + AZD7762; first compound 0.02 µM
  relative viability: 0.481
Entinostat + AZD7762; first compound 0.06325 µM
  relative viability: 0.623
Entinostat + AZD7762; first compound 0.2 µM
  relative viability: 0.5
Entinostat + AZD7762; first compound 0.6325 µM
  relative viability: 0.345
Entinostat + AZD7762; first compound 2 µM
  relative viability: 0.21
